Each structure is given as a SMILES string. pIC50: −log10 of the molar value. A value given as a limit tells only on which side of the number the result lay.

The target in one experiment is T1, human orexin-2 receptor (Homo sapiens, UniProt O43614).
T1 construct: expressed in transfected cells; host or cells: CHO cells (G418 selection)
T1 sequence (O43614 1-444): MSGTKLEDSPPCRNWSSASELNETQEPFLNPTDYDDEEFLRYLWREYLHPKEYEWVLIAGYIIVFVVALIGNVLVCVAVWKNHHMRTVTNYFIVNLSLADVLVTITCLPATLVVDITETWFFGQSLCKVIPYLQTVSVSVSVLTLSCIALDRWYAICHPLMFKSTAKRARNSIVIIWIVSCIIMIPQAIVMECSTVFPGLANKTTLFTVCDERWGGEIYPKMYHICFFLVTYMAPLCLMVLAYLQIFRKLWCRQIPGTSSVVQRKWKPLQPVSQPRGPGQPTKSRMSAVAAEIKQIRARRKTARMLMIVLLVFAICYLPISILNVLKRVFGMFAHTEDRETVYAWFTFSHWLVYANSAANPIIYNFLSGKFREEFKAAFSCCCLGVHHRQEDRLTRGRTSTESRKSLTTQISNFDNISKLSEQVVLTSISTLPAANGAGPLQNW
As to the kind of experiment: Intracellular calcium measurements (FLIPR), orexin receptor antagonistic activity, OX2. It is filed as cell-based. Particulars: CHO cells expressing the human orexin-2 receptor, agonist 10 nM human orexin-A. Here is the method: (§1) The Orexin receptor antagonistic activity of the compounds of formula (I) was determined in accordance with the following experimental method.
(§2) Intracellular Calcium Measurements
(§3) Chinese hamster ovary (CHO) cells expressing the human orexin-1 receptor and the human orexin-2 receptor, respectively, were grown in culture medium (Ham F-12 with L-Glutamine) containing 300 μg/ml G418, 100 U/ml penicillin, 100 μg/ml streptomycin and 10% inactivated foetal calf serum (FCS).
(§4) The cells were seeded at 80,000 cells/well into 96-well black clear bottom sterile plates (Costar) which had been precoated with 1% gelatine in Hanks' Balanced Salt Solution (HBSS). All reagents were from Gibco BRL.
(§5) The seeded plates were incubated overnight at 37° C. in 5% CO2.
(§6) Human orexin-A as an agonist was prepared as 1 mM stock solution in methanol:water (1:1), diluted in HBSS containing 0.1% bovine serum albumin (BSA) and 2 mM HEPES for use in the assay at a final concentration of 10 nM.
(§7) Antagonists were prepared as 10 mM stock solution in DMSO, then diluted in 96-well plates, first in DMSO, then in HBSS containing 0.1% bovine serum albumin (BSA) and 2 mM HEPES.
(§8) On the day of the assay, 100 μl of loading medium (HBSS containing 1% FCS, 2 mM HEPES, 5 mM probenecid (Sigma) and 3 μM of the fluorescent calcium indicator fluo-3 AM (1 mM stock solution in DMSO with 10% pluronic acid) (Molecular Probes) was added to each well.
(§9) The 96-well plates were incubated for 60 min at 37° C. in 5% CO2. The loading solution was then aspirated and cells were washed 3 times with 200 μl HBSS containing 2.5 mM probenecid, 0.1% BSA, 2 mM HEPES. 100 μl of that same buffer was left in each well. Within the Fluorescent Imaging Plate Reader (FLIPR, Molecular Devices), antagonists were added to the plate in a volume of 50 μl, incubated for 20 min and finally 100 μl of agonist was added. Fluorescence was measured for each well at 1 second intervals, and the height of each fluorescence peak was compared to the height of the fluorescence peak induced by 10 nM orexin-A with buffer in place of antagonist.

The target in the next experiment is T2, human orexin-1 receptor (Homo sapiens, UniProt O43613).
T2 construct: expressed in transfected cells; host or cells: CHO cells (G418 selection)
T2 sequence (O43613 1-425): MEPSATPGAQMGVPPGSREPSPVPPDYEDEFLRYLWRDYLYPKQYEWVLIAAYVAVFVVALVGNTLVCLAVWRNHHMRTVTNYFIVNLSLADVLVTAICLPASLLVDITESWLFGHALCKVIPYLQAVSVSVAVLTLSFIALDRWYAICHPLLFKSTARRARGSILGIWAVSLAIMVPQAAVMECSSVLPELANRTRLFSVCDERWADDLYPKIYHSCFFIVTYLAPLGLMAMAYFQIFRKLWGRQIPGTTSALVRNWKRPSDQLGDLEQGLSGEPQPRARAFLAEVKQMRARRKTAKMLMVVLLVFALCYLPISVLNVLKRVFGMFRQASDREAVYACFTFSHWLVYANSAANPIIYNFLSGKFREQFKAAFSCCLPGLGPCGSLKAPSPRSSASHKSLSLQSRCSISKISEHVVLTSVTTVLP
Nature of the experiment: Intracellular calcium measurements (FLIPR), orexin receptor antagonistic activity, OX1. The experiment is classed as cell-based. Conditions: CHO cells expressing the human orexin-1 receptor, agonist 10 nM human orexin-A. The method, then: as §1, §2, §3, §4, §5, §6, §7, §8, §9

Regarding `CCN(Cc1ccccc1)C(=O)CN(c1ccc(OC)nc1)S(=O)(=O)c1ccccc1C` [Example 46, N-Benzyl-N-ethyl-2-[(6-methoxy-pyridin-3-yl)-(toluene-2-sulfonyl)-amino]-acetamide], the negative-log IC50 (pIC50) is 8.30 at human orexin-2 receptor and 6.05 at human orexin-1 receptor.
For `CCN(Cc1ccccc1)C(=O)CN(c1ccccc1OC)S(=O)(=O)c1ccccc1C` [Example 47, N-Benzyl-N-ethyl-2-[(2-methoxy-phenyl)-(toluene-2-sulfonyl)-amino]-acetamide], in that order: 8.40 and 6.45.
Turning to `CCN(CCC#N)C(=O)CN(c1ccc(C)cc1)S(=O)(=O)c1ccc(C(C)(C)C)cc1` [Example 63, 2-[(4-tert-Butyl-benzenesulfonyl)-p-tolyl-amino]-N-(2-cyano-ethyl)-N-ethyl-acetamide], the negative-log IC50 (pIC50) at human orexin-2 receptor is 8.52; at human orexin-1 receptor, less than 5.00.
In the case of `CCN(Cc1ccccn1)C(=O)CN(c1ccc(C)cc1)S(=O)(=O)c1ccc(C(C)(C)C)cc1` [Example 66, 2-[(4-tert-Butyl-benzenesulfonyl)-p-tolyl-amino]-N-ethyl-N-pyridin-2-ylmethyl-acetamide], the pIC50 is 8.40 at human orexin-2 receptor and 5.99 at human orexin-1 receptor.
As for `CCN(Cc1cccc(C)n1)C(=O)CN(c1ccc(C)cc1)S(=O)(=O)c1ccc(C(C)(C)C)cc1` [Example 71, 2-[(4-tert-Butyl-benzenesulfonyl)-p-tolyl-amino]-N-ethyl-N-(6-methyl-pyridin-2-ylmethyl)-acetamide], the negative logarithm of the IC50 (pIC50) at human orexin-2 receptor was 8.30; at human orexin-1 receptor it was 6.38.
As for `CCN(Cc1cccc(C)n1)C(=O)CN(c1cccc(N(C)C)c1)S(=O)(=O)c1ccc(C(C)(C)C)cc1` [Example 87, 2-[(4-tert-Butyl-benzenesulfonyl)-(3-dimethylamino-phenyl)-amino]-N-ethyl-N-(6-methyl-pyridin-2-ylmethyl)-acetamide], the values for the negative-log IC50 (pIC50) on human orexin-2 receptor and at human orexin-1 receptor were 8.10 and 7.25, respectively.
`CN(C)c1cccc(N(CC(=O)N(CCO)Cc2ccccn2)S(=O)(=O)c2ccc(C(C)(C)C)cc2)c1` [Example 111, 2-[(4-tert-Butyl-benzenesulfonyl)-(3-dimethylamino-phenyl)-amino]-N-(2-hydroxy-ethyl)-N-pyridin-2-ylmethyl-acetamide]: the values for the pIC50 on human orexin-2 receptor and at human orexin-1 receptor were 8.30 and 6.48, respectively.
For `CCN(Cc1cccc(O)c1)C(=O)CN(c1ccccc1OC)S(=O)(=O)c1ccccc1C` [Example 158, N-Ethyl-N-(3-hydroxy-benzyl)-2-[(2-methoxy-phenyl)-(toluene-2-sulfonyl)-amino]-acetamide], the negative-log IC50 (pIC50) on human orexin-2 receptor was 8.30; at human orexin-1 receptor it was 6.08.
With `CCN(Cc1cccc(C)n1)C(=O)CN(c1ccc(OC)nc1)S(=O)(=O)c1ccccc1C` [Example 160, N-Ethyl-2-[(6-methoxy-pyridin-3-yl)-(toluene-2-sulfonyl)-amino]-N-(6-methyl-pyridin-2-ylmethyl)-acetamide], the results for the pIC50 on human orexin-2 receptor and on human orexin-1 receptor were 8.70 and 5.06, respectively.
On to `CCN(Cc1ccccn1)C(=O)CN(c1ccc(OC)nc1)S(=O)(=O)c1ccccc1C` [Example 163, N-Ethyl-2-[(6-methoxy-pyridin-3-yl)-(toluene-2-sulfonyl)-amino]-N-pyridin-2-ylmethyl-acetamide], for which the pIC50 on human orexin-2 receptor is 8.40; at human orexin-1 receptor, less than 5.00.
In the case of `CCN(Cc1ccccc1)C(=O)CN(c1ccccc1OC)S(=O)(=O)c1ncccc1C` [Example 185, N-Benzyl-N-ethyl-2-[(2-methoxy-phenyl)-(3-methyl-pyridine-2-sulfonyl)-amino]-acetamide], the pIC50 at human orexin-2 receptor was 8.40; at human orexin-1 receptor, 5.37.
For the compound `CCN(Cc1ccccc1)C(=O)CN(c1ccc(OC)nc1)S(=O)(=O)c1ncccc1C` [Example 207, N-Benzyl-N-ethyl-2-[(6-methoxy-pyridin-3-yl)-(3-methyl-pyridine-2-sulfonyl)-amino]-acetamide], the pIC50 at human orexin-2 receptor is 8.40; on human orexin-1 receptor, 5.27.

Values taken from patent US7435815B2, “Sulfonylamino-acetic acid derivatives” (Actelion Pharmaceuticals Ltd., priority 2002, dated 2008).
